The values that follow come from patent US6645983B1, “Pharmaceutical compositions comprising 4-quinolones for treating cancers” (Laboratoire L. Lafon, priority 1999, dated 2003).

Where two headings read alike, the source gives them in different places.

In one data set the test system is A-427. As to the kind of experiment: MTT test, cytotoxic activity on non-clonogenic cell lines. The format is cell-based. The conditions noted are these: Homo sapiens, 10^−5 M, mean value. The procedure, abridged: (§1)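 Human cancer lines seeded at 20 000–50 000 cells/ml, allowed 24 h to attach, then exposed to compounds at 10^−5 to 10^−10 M versus solvent control.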
(Formazan colour is commonly taken as a measure of viable cells.)

Another data set has as its system A549. Described as above. The format is cell-based. As to conditions: Homo sapiens, 10^−5 M, mean value. The procedure, abridged: as §1
Data set [1] has as its system HCT-15. Described as above. The format is cell-based. As to conditions: Homo sapiens, mean value. The method in brief:
as §1

The next data set concerns LoVo. The description is as above. The conditions noted are these: Homo sapiens, 10^−5 M, mean value. The format is cell-based. The method in brief:
as §1

In the next data set the test system is MCF7. Described as above. The format is cell-based. As to conditions: Homo sapiens, 10^−5 M, mean value. The method in brief:
as §1

The next data set concerns PC-3. The data set is described as above. The format is cell-based. As to conditions: Homo sapiens, 10^−5 M, mean value. The method in brief:
as §1

The test system of another data set is T-47D. The data set is described as above. The format is cell-based. The conditions noted are these: Homo sapiens, T47D, 10^−5 M, mean value. The procedure, abridged:
as §1

The subject of another data set is U-373MG. The data set is described as above. The format is cell-based. As to conditions: Homo sapiens, U373 MG, 10^−5 M, mean value. The procedure, abridged:
as §1

A further data set deals with U-87MG. The description is as above. As to conditions: Homo sapiens, 10^−5 M, mean value. The format is cell-based. The method in brief:
as §1

The subject of another data set is SW1088. The description is as above. The format is cell-based. As to conditions: Homo sapiens, 10^−5 M, mean value. The method in brief: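 Human astrocytoma SW1088 cells seeded, grown 24 h at 37° C, 5% CO2, then exposed to compounds at 10^−5 to 10^−10 M versus solvent control. Viability by MTT reduction: 3 h MTT incubation, formazan dissolved in DMSO and read by spectrophotometry.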

The test system of the next data set is J82. Described as above. The format is cell-based. As to conditions: Homo sapiens, 10^−5 M, mean value. The procedure, abridged: (§2)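 Human bladder cancer lines were seeded at 20 000–50 000 cells/ml and, after 24 h, exposed to compounds at 10^−5 to 10^−10 M against a solvent control. Formazan was dissolved in DMSO and viability was read by spectrophotometric optical density.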

Another data set has as its system T24. Described as above. The format is cell-based. As to conditions: Homo sapiens, T-24, 10^−5 M, mean value. The procedure, abridged:
as §2

In data set [2] the test system is HCT-15.
Data set [3] concerns HCT-15. The experiment in a line: cells. As to conditions: Homo sapiens, HCT-15, read-out: concentration that inhibits by 50% (IC50) the in vitro cell growth of the HCT-15 line.
The mark [4] stands for this setting: 72 hours incubation, MTT, read-out: mean optical density, expressed as percentage relative to the mean optical density under the control condition (100%).

By melting point is commonly meant the temperature of the solid-liquid transition. `COc1ccc(-c2cnc3c(OC)ccc(OC)c3c2OCCN(C)C)cc1` [CRL8370, N-{2-[5,8-Dimethoxy-3-(4-methoxyphenyl)-4-quinolyl]oxy}ethyl-N,N-dimethylamine] had a melting point of 69 to 70 °C. In addition, the viability at 10 µM in the data set with A-427 (72 hours of incubation, control condition = 100%, read-out: mean optical density as percentage of control, A-427) amounted to 76%. The viability at 10 µM with A549 (72 hours of incubation, control condition = 100%, read-out: mean optical density as percentage of control, A549) is 85.6%. For the same compound, the viability at 10 µM in the data set with HCT-15 [1] (10^−5 M, 72 hours of incubation, control condition = 100%, read-out: mean optical density as percentage of control, HCT-16) was found to be 103%. The viability at 10 µM in the data set on LoVo (72 hours of incubation, control condition = 100%, read-out: mean optical density as percentage of control, LoVo) came to 95.1%. The viability at 10 µM with MCF7 (72 hours of incubation, control condition = 100%, read-out: mean optical density as percentage of control, MCF7) is 88.5%. For the same compound, the viability at 10 µM with PC-3 (72 hours of incubation, control condition = 100%, read-out: mean optical density as percentage of control, PC-3) was found to be 87.1%. Moreover, the viability at 10 µM with T-47D (72 hours of incubation, control condition = 100%, read-out: mean optical density as percentage of control, T-47D) amounted to 88.5%. In the data set with U-373MG (72 hours of incubation, control condition = 100%, read-out: mean optical density as percentage of control, U-373MG), the viability at 10 µM was 105%. The viability at 10 µM in the data set on U-87MG (U-87 MG, 72 hours of incubation, control condition = 100%, read-out: mean optical density as percentage of control, U-87MG) came out at 104%. The viability at 10 µM in the data set on SW1088 (72 hours of incubation, control condition = 100%, read-out: mean optical density as percentage of control, SW1088) was found to be 99.4%. Moreover, the viability at 10 µM with J82 (72 hours of incubation, control condition = 100%, read-out: mean optical density as percentage of control, J82) turned out to be 102%. Further, the viability at 10 µM in the data set with T24 (72 hours of incubation, control condition = 100%, read-out: mean optical density as percentage of control, T24) is 74.3%. For the same compound, in the data set on HCT-15 [2] (10^−5 M compound + 10^−7 M adriamycin, 15.2/42.8), the “amplification compared with the activity of adriamycin alone (gain / activity alone)” value is “about 35%”.

The compound `COc1ccc(-c2cn(CCN(C)C)c3cc(OC)ccc3c2=O)cc1` [CRL8469, N-[3-(Dimethylamino)ethyl]-7-methoxy-3-(4-methoxyphenyl)-1,4-dihydro-4-quinolinone] yielded a melting point of 142 to 143 °C. Besides, the viability at 10 µM in the data set on A-427 (setting [4]) was 102%. Further, the viability at 10 µM in the data set on A549 (setting [4]) was found to be 100%. Also, the viability at 10 µM in the data set with HCT-15 [1] (HCT-16, 10^−5 M, 72 hours incubation, MTT, read-out: mean optical density, expressed as percentage relative to the mean optical density under the control condition (100%)) was 101%. Further, the viability at 10 µM in the data set with LoVo (setting [4]) was 95.9%. Moreover, in the data set with MCF7 (setting [4]), the viability at 10 µM was determined as 97.6%. For the same compound, the viability at 10 µM in the data set with PC-3 (setting [4]) worked out at 99.9%. The viability at 10 µM with T-47D (T-47D, 72 hours incubation, MTT, read-out: mean optical density, expressed as percentage relative to the mean optical density under the control condition (100%)) stood at 103%. For the same compound, the viability at 10 µM in the data set with U-373MG (U-373MG, 72 hours incubation, MTT, read-out: mean optical density, expressed as percentage relative to the mean optical density under the control condition (100%)) was determined as 102%. The viability at 10 µM with U-87MG (U-87MG, 72 hours incubation, MTT, read-out: mean optical density, expressed as percentage relative to the mean optical density under the control condition (100%)) worked out at 108%. The viability at 10 µM with SW1088 (setting [4]) turned out to be 105%. In the data set with J82 (setting [4]), the viability at 10 µM was determined as 89.5%. Moreover, the viability at 10 µM in the data set with T24 (T24, 72 hours incubation, MTT, read-out: mean optical density, expressed as percentage relative to the mean optical density under the control condition (100%)) was 98.1%.

By inhibition is commonly meant the change of the read-out against control, counted positive when it falls. The low end stands for a weak effect, the high end for a strong effect. Turning to `COc1cccc2c1C(=O)c1c(O)c3c(c(O)c1C2=O)C[C@@](O)(C(=O)CO)C[C@@H]3O[C@H]1C[C@H](N)[C@H](O)[C@H](C)O1` [adriamycin, reference compound], the inhibition in the data set with HCT-15 [2] came to 42.8%. The IC50 in the data set with HCT-15 [3] was found to be 100 nM.

Turning to `COc1cc([C@@H]2c3cc4c(cc3[C@@H](O[C@@H]3O[C@@H]5CO[C@@H](C)O[C@H]5[C@H](O)[C@H]3O)[C@H]3COC(=O)[C@H]23)OCO4)cc(OC)c1O` [etoposide], in the data set with HCT-15 [3], the IC50 amounted to 1000 nM.
